Patent publication US20250075155A1, “Use of Vanillyl Ethers to Modify Flavor of Distilled Spirits” (Firmenich Incorporated, priority 2021, published 2025)

Assay: Sensory testing of unaged grain neutral spirit with vs without VEE (qualitative, taste testers)
Method: (§1) Sensory testing was performed comparing two samples of unaged grain neutral spirit (20% alcohol by volume), where one sample contained no vanillyl ether compounds and the other sample contained 4-(ethoxy methyl)-2-methoxyphenol (vanillyl ethyl ether or VEE) at a concentration of 5 ppm. The taste testers were asked to describe the differences between the two samples on a qualitative basis.
as §1, with “4-(ethoxymethyl)-2-methoxyphenol” for “4-(ethoxy methyl)-2-methoxyphenol”, “25” for “5”

[1] = VEE 5 ppm in unaged grain neutral spirit (20% ABV), relative to control sample
[2] = VEE 25 ppm in unaged grain neutral spirit (20% ABV), relative to control sample

## CCOCc1ccc(O)c(OC)c1 [VEE, 4-(ethoxymethyl)-2-methoxyphenol]
[1]
  Bitterness: All taste testers identified the test sample as having a less bitter
  Overall Taste: All taste testers identified the test sample as having a better overall
  Smoothness/Balance/Roundness: All taste testers identified the test sample as having greater
  Smoothness/Balance/Roundness: taste characteristic of an aged spirit: test sample as having a taste more characteristic of an aged spirit.
  Sweetness: sweeter taste.
VEE 5 ppm in unaged grain neutral spirit (20% alcohol by volume), relative to control sample without vanillyl ether
  Smell: sample (containing VEE) as having a slight rum-like smell relative
[2]
  Bitterness: All taste testers identified the test sample as having a less bitter
  Overall Taste: All taste testers identified the test sample as having a better
  Smoothness/Balance/Roundness: All taste testers identified the test sample as having greater
  Sweetness: sweeter taste.
  Tingling/Heat: increased tingling/hot perception very similar to ethanol profile
  Tingling/Heat: alcohol perception: while significantly increasing the alcohol perception; taste like
